Measurements reported in patent US11629192B2, “Methods and pharmaceutical compositions for the treatment of diseases mediated by the NRP-1/OBR complex signaling pathway” (INSERM (Institut National de la Sante et de la Recherche …, priority 2014, dated 2023).

Molecular target: T1, OBR (Homo sapiens, UniProt P48357)
T1 sequence (P48357 22-1165): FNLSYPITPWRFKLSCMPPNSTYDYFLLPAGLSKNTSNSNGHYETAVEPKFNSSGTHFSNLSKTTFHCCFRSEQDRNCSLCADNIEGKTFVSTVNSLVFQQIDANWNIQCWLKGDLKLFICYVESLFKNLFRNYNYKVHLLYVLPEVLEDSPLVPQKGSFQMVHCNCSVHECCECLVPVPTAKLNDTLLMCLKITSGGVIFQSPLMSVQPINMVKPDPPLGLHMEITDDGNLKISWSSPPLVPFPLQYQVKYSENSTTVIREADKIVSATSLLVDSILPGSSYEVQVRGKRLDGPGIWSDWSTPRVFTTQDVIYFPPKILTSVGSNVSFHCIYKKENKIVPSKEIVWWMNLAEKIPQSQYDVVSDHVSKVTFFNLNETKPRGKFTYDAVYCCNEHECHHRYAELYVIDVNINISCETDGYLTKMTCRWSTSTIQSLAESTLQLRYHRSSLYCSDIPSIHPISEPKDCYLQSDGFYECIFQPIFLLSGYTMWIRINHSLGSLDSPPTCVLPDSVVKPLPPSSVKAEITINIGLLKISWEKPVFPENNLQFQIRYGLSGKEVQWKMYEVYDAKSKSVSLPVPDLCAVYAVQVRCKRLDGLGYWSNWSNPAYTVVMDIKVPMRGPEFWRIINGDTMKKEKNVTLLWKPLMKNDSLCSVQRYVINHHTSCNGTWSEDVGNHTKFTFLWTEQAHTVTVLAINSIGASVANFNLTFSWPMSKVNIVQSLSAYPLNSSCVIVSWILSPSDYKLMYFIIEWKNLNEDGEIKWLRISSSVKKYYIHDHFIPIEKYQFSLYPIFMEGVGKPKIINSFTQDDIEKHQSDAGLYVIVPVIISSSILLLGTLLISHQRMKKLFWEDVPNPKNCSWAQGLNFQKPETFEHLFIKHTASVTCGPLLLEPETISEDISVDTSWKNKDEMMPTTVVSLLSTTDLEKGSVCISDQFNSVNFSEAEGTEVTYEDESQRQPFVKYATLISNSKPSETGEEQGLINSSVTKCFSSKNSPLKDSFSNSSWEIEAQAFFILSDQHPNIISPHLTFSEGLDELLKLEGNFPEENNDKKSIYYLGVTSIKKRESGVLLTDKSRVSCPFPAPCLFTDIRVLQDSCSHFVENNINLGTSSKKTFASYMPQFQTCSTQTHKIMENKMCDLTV
Assay: Bio-Layer Interferometry (BLI) binding to OBR
Text: FIG. 5. NRP-1, OBR and leptin interactions confirmation using a Bio-Layer Interferometry (BLI) technology (fortebio.com/bli-technology.html): A-Leptin (OB) interaction to OBR is used as a positive control. Human neuropilin-1 (hNRP-1) interact with human OBR with a high affinity and specifically with human leptin (hOB) but not with murine leptin (mOB). VEGF165 binding to hNRP-1 is used as a positive control. B-Leptin and Avastin association increases MDA-MB231 cells transmigration through […] pore Insert. Avastin treatment may prevent a negative feedback control by VEGF of the pro-angiogenic signaling pathway of Leptin. VEGF binds to OBR which confirms our hypothesis that should be more investigated.

VEGF was tested, and the “binding to OBR” value was “binds”.
